Source: article PMC6521598, “Identification of GLPG/ABBV-2737, a Novel Class of Corrector, Which Exerts Functional Synergy With Other CFTR Modulators” (Frontiers in Pharmacology, 2019)
pEC50: −log10 of the molar value.

What was measured:
F508del CFTR = F508del CFTR (Homo sapiens, UniProt P13569, DEL508-508); assay: Patch-clamp single-channel recording, inside-out patches of CHO cells; format: cell-based, hamster
Protocol: A more complete description of the patch-clamp methodology can be found in a recent publication ([Lin et al., 2016]). Briefly, CHO (Chinese Hamster Ovary) cells were transiently transfected with pcDNA plasmids containing a F508del CFTR construct and pEGFP-C3. After transfection, cells were trypsinized and plated onto 35 mm tissue culture dishes dispersed with sterilized glass chips. Electrophysiological experiments were performed 3–7 days following transfection.
Patch-clamp experiments were performed at room temperature with an EPC-9 patch clamp amplifier (HEKA Instruments, Holliston, MA, United States). Recording microelectrodes were made from borosilicate capillary glass with a two-stage pipette puller (Narishige, Tokyo, Japan). The pipette tip was polished with a home-made microforge before use. The pipette solution contained (in mM) 140 NMDG (N-methyl-D-glucamine)-Cl (Fisher Biotec), 2 MgCl2 (Fisher Biotec, Perth, WA, Australia), 5 CaCl2 (Fisher Biotec), and 10 HEPES (Fisher Biotec), pH 7.4, with NMDG (see [Lin et al., 2016] for details). The pipette resistance when filled with the regular pipette solution was 3–5 MΩ. Once the tip of the pipette and the cell membrane established GΩ resistance, the electrode was quickly pulled away from the cell to form an inside-out patch, where the cytosolic side of the membrane was exposed to the perfusion solution. Cells were perfused with a bath solution having (in mM) 145 NaCl (Fisher Biotec), 5 KCl (Fisher Biotec), 2 MgCl2, 1 CaCl2, 5 glucose (Fisher Biotec), 5 HEPES, and 20 sucrose (Fisher Biotec), pH 7.4, with NaOH (Fisher Biotec). After establishing an inside-out configuration, the patch was perfused with a standard perfusion solution (i.e., intracellular solution) containing (in mM) 150 NMDG-Cl, 2 MgCl2, 10 EGTA (Fisher Biotec), and 8 Tris (Fisher Biotec), pH 7.4, with NMDG (see [Lin et al., 2016] for details) containing the catalytic subunit of protein kinase A (PKA) and 2 mM ATP. Once the phosphorylation-dependent activation of CFTR reached a plateau, 10 μM GLPG3067 was applied in the continuous presence of 2 mM ATP until a steady state was attained.
Microscopic kinetic analysis was performed with a program provided by Dr. László Csanády (Semmelweis University, Budapest, Hungary) ([Csanády, 2000]). Experiments were performed four to five times and averages and SEM were calculated. The resulting Open probability (Po) values and single-channel kinetic parameters were compared with paired t-test (Excel, Microsoft); P < 0.05 is considered statistically significant.

E92K CFTR = target: T1, E92K CFTR (Homo sapiens, UniProt P13569, E92K); assay: YFP halide assay (YHA), HEK293, E92K; format: cell-based; details: for rescue of E92K: YFP halide assay
T1 construct: expressed in transfected cells; host or cells: HEK293
Protocol: (§1) HEK293 cells were transfected with 10–80 ng of plasmid encoding F508del, E92K, P67L, V232D, F508del/G550E, F508del/I539T or wild type CFTR and 20 ng of plasmid encoding YFP (H148Q/I152L/F47L) using jetPEI (Polyplus transfection). Directly after transfection, cells were seeded in black 96-well plates coated with poly-D-lysine at a density of 70,000 cells per well. The next day, cells were treated with corrector(s) for 24 h. After this incubation period, cells were washed twice with DPBS with Ca^2+ and Mg^2+. Subsequently, cells were treated with 10 μM forskolin and the desired concentration of potentiator in a volume of 40 μl and incubated at room temperature for 10 min, a time point optimized in previous experiments resulting in a good window (positive control/negative control > 2) and signal to background ratio. YFP fluorescence was measured using an EnVision plate reader (PerkinElmer). […] The excitation wavelength was 485 nm and the emission wavelength 530 nm. The capacity of potentiators to increase CFTR channel function was expressed as 1-(fluorescence 7 s after NaI addition (F)/fluorescence before NaI addition (F0)). For the different mutants, data was normalized using the formula: normalized response = 100^∗(absolute response – negative control response)/(GLPG2222 response – negative response) as such, GLPG2222 response corresponds to 100. Concentration–response experiments were fitted using a 4 parameter hill function of the form Response = Bottom + (Top - Bottom)/(1 + (EC50/concentration) ˆHillSlope)) to determine EC50 values.
(§2) FIGURE 7 YHA assay using CFTR mutant overexpression in HEK293 cells. Cells were incubated for 24 h with either a dose range of GLPG2737, GLPG2222 or VX809. After washing, cells were triggered with forskolin (50 μM for F508del, E92K, V232D and F508del/I539T, 10 μM for P67L or 1 μM for F508del/G550E) and 0.5 μM potentiator and YFP fluorescence was measured. Efficacy was determined using 10 μM GLPG2222 as positive control and DMSO as negative control in the assay. (A) Table with potency and efficacy obtained for the mutants and compounds tested. (B) Dose–response curves of GLPG2737. (C) Dose–response curves of GLPG2222. (D) Dose–response curves of VX-809. For panels (B–D), E92K mutant is represented in black, F508del mutant in blue, F508del/I539T mutant in green and V232D mutant in gray, all concentrations are tested in duplicate. […] All values containing these digits are best readings, e.g. GLPG2222 P67L EC50 206 (± 98), GLPG2222 E92K EC50 503 (± 109), VX809 F508del EC50 286 (± 35), VX809 P67L % of reference 88 (± 3), GLPG2737 F508del % of reference 138 (± 9). / GLPG2737, EC50 for P67L and E92K is printed as NA; left out because no value is given. / VX809, E92K EC50 error: 17, a digit may be missing.

P67L CFTR = target: T2, P67L CFTR (Homo sapiens, UniProt P13569, P67L); assay: YFP halide assay (YHA), HEK293, P67L; format: cell-based; details: for rescue of P67L: YFP halide assay
T2 construct: expressed in transfected cells; host or cells: HEK293
Protocol: as §1, §2

F508del/G550E CFTR = target: T3, F508del/G550E CFTR (Homo sapiens, UniProt P13569, DEL508-508/G550E); assay: YFP halide assay (YHA), HEK293, F508del/G550E; format: cell-based; details: 24 h; 1 μM forskolin + 0.5 μM potentiator
T3 construct: expressed in transfected cells; host or cells: HEK293
Protocol: as §1, with “For the different mutants, data was normalized using the formula: normalized response = 100^∗(absolute response – negative control response)/(GLPG2222 response – negative response) as such, GLPG2222 response corresponds to 100. Concentration–response experiments were fitted using a 4 parameter hill function of the form Response = Bottom + (Top - Bottom)/(1 + (EC50/concentration) ˆHillSlope)) to determine EC50 values.” left out
(§3) FIGURE 7 YHA assay using CFTR mutant overexpression in HEK293 cells. […] After washing, cells were triggered with forskolin (50 μM for F508del, E92K, V232D and F508del/I539T, 10 μM for P67L or 1 μM for F508del/G550E) and 0.5 μM potentiator and YFP fluorescence was measured. Efficacy was determined using 10 μM GLPG2222 as positive control and DMSO as negative control in the assay. […] All values containing these digits are best readings, e.g. GLPG2222 P67L EC50 206 (± 98), GLPG2222 E92K EC50 503 (± 109), VX809 F508del EC50 286 (± 35), VX809 P67L % of reference 88 (± 3), GLPG2737 F508del % of reference 138 (± 9). / GLPG2737, EC50 for P67L and E92K is printed as NA; left out because no value is given. / VX809, E92K EC50 error: 17, a digit may be missing.

V232D CFTR = target: T4, V232D CFTR (Homo sapiens, UniProt P13569, V232D); assay: YFP halide assay (YHA), HEK293, V232D; format: cell-based; details: 24 h; 50 μM forskolin + 0.5 μM potentiator
T4 construct: expressed in transfected cells; host or cells: HEK293
Protocol: as §1, with “For the different mutants, data was normalized using the formula: normalized response = 100^∗(absolute response – negative control response)/(GLPG2222 response – negative response) as such, GLPG2222 response corresponds to 100. Concentration–response experiments were fitted using a 4 parameter hill function of the form Response = Bottom + (Top - Bottom)/(1 + (EC50/concentration) ˆHillSlope)) to determine EC50 values.” left out
as §3

A455E CFTR = target: T5, A455E CFTR (Homo sapiens, UniProt P13569, A455E); assay: YFP halide assay (YHA), HEK293, A455E; format: cell-based; details: 24 h; forskolin + 0.5 μM potentiator
T5 construct: expressed in transfected cells; host or cells: HEK293

[1] = cells treated 24 h with 0.5 μM GLPG2222 only, n = 3
[2] = acute addition of 1 μM GLPG2737 on top of 0.5 μM GLPG2222 + 10 μM GLPG3067
[3] = cells pre-treated 24 h with 0.5 μM GLPG2222 + 1 μM GLPG2737 + 10 μM GLPG3067, compounds in recording solution
[4] = same pre-treatment, after washout of GLPG2737 (GLPG2222 + GLPG3067 present)

F508del CFTR, sequence (P13569 with tags, fused parts or gaps DEL508-508): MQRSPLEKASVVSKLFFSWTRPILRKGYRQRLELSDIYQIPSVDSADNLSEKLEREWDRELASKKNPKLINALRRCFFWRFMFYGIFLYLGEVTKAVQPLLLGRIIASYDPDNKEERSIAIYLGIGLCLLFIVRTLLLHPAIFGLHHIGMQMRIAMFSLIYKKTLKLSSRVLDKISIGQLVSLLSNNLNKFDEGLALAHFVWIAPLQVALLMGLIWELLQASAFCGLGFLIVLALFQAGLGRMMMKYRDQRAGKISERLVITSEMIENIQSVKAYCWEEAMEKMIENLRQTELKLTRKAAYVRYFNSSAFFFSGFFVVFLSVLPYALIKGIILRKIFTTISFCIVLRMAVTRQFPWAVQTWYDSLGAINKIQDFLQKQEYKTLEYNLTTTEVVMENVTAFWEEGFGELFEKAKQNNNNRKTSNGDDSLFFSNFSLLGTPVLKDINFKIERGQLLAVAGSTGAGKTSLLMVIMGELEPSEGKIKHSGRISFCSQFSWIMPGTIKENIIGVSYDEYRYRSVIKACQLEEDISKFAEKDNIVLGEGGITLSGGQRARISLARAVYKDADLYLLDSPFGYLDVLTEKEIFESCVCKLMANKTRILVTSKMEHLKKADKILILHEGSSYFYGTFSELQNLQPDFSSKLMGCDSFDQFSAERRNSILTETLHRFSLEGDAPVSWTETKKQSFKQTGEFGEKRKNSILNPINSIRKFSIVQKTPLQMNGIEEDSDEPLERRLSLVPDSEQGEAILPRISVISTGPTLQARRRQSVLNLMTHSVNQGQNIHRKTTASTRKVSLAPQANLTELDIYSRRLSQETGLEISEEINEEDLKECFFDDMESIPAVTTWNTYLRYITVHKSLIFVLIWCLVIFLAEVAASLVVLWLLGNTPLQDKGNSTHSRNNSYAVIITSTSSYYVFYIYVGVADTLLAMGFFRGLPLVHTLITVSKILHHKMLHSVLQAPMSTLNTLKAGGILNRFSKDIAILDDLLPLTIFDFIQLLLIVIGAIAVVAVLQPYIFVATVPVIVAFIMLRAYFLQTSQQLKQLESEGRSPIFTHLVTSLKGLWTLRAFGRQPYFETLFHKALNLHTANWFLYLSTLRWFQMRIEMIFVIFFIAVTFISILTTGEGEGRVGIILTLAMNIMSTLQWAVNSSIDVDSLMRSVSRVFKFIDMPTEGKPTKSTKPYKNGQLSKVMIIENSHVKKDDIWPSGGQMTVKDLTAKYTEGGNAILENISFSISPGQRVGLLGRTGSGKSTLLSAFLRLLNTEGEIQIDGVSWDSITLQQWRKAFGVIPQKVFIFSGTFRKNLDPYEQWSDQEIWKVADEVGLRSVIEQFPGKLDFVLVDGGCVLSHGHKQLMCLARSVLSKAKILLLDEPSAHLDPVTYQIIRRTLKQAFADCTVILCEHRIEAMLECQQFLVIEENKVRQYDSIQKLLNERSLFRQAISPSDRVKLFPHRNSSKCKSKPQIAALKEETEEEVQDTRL
T1 sequence (P13569 whole entry E92K): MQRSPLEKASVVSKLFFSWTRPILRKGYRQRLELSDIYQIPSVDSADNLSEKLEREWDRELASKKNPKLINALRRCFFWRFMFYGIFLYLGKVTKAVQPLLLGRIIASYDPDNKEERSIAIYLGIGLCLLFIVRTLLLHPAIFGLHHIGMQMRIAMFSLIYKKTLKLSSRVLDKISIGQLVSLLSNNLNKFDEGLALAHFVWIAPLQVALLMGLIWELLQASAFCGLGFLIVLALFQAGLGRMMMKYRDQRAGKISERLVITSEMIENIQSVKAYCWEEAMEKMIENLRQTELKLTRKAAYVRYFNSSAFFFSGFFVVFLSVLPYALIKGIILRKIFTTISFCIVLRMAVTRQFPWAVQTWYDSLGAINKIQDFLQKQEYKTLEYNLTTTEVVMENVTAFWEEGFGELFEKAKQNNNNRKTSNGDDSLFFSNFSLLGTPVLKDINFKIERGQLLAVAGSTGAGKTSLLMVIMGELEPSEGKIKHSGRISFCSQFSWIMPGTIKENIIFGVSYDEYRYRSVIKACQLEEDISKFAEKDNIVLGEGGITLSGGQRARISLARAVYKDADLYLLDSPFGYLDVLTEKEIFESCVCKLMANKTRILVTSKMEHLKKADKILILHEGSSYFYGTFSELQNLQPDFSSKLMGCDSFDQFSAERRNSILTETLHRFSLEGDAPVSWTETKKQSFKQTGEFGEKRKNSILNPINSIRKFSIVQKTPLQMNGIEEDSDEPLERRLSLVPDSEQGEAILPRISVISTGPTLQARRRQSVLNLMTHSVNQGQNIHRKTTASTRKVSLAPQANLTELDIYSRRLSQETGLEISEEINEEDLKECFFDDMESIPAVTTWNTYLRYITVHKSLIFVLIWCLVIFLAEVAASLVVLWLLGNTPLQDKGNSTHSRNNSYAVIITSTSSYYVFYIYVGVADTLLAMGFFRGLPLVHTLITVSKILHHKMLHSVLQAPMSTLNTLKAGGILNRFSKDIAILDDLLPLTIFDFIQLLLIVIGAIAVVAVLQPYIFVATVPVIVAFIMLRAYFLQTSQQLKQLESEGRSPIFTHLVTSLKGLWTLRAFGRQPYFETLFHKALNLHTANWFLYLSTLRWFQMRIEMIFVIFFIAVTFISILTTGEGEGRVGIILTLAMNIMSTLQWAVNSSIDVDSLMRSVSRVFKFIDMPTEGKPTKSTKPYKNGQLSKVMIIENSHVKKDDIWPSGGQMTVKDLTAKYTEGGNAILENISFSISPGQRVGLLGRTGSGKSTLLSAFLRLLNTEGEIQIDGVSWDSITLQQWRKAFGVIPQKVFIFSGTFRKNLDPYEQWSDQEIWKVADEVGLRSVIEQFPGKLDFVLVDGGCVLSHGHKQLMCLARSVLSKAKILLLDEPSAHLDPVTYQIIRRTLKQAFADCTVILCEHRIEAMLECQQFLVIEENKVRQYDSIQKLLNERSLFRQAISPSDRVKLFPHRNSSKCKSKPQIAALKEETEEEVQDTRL
T2 sequence (P13569 whole entry P67L): as the sequence (P13569 whole entry E92K) above, with P67L, K92E counted along it
T4 sequence (P13569 whole entry V232D): as the sequence (P13569 whole entry E92K) above, with K92E, V232D counted along it
T5 sequence (P13569 whole entry A455E): as the sequence (P13569 whole entry E92K) above, with K92E, A455E counted along it
T3 sequence (P13569 with tags, fused parts or gaps DEL508-508/G550E): as the sequence (P13569 with tags, fused parts or gaps DEL508-508) above, with G549E counted along it

Po (F508del CFTR; [1])	τc (F508del CFTR; [1]) [s]	τo (F508del CFTR; [1]) [s]	pEC50 (E92K CFTR; 24 h, 50 μM forskolin + 0.5 μM potentiator)	rescue of E92K (E92K CFTR)	pEC50 (P67L CFTR; 24 h, 10 μM forskolin + 0.5 μM potentiator)	rescue of P67L (P67L CFTR)	pEC50 (F508del/G550E CFTR)	pEC50 (V232D CFTR)	pEC50 (A455E CFTR)	Po (F508del CFTR; [2])	τc (F508del CFTR; [2]) [s]	τo (F508del CFTR; [2]) [s]	apparent Po (F508del CFTR; [3])	τc (F508del CFTR; [3]) [s]	τo (F508del CFTR; [3]) [s]	Po (F508del CFTR; [4])	τc (F508del CFTR; [4]) [s]	τo (F508del CFTR; [4]) [s]	Structure (SMILES)
0.04 ± 0.01	6.88 ± 3.36	0.25 ± 0.08	6.30	could be rescued	6.69	could be rescued	8.05	7.85	7.48										O=C(O)c1ccc([C@H]2C[C@@H](NC(=O)C3(c4ccc5c(c4)OC(F)(F)O5)CC3)c3ccc(OC(F)F)cc3O2)cc1 [GLPG2222, 4-[(2 R,4 R)-4-({[1-(2,2-Difluoro-1,3-benzodioxol-5-yl)cyclopropyl]carbonyl}amino)-7-(difluoromethoxy)-3,4-dihydro-2 H -chromen-2-yl]benzoic Acid]
				absence of rescue		absence of rescue	6.60	6.79	< 5.58	0.15 ± 0.01	6.42 ± 1.24	1.37 ± 0.33	0.21 ± 0.003	10.35 ± 2.22	2.68 ± 0.59	0.63 ± 0.05	1.89 ± 0.38	3.28 ± 0.09	COC1CCN(C2CCN(c3cc(C(=O)NS(=O)(=O)N(C)C)nc4c3c(C3CCC3)nn4-c3ccc(F)cc3)CC2)CC1 [GLPG2737]
